Source: article PMC6536313 (Bioorganic & medicinal chemistry, 2019)

Tests used:
σ2 receptor (σ2R) = σ2 receptor (σ2R) (Homo sapiens, UniProt Q5BJF2); assay: Sigma-2 receptor radioligand binding; conditions: for σ2R pKi ± SEM: Mean ± SEM
σ1 receptor (σ1R) = σ1 receptor (σ1R) (Homo sapiens, UniProt Q99720); assay: Sigma-1 receptor radioligand binding
[1] = on removal of both chloro and fluoro substituents (ether analogs 13-15)

σ1 receptor (σ1R), sequence (Q99720 whole entry, species assumed): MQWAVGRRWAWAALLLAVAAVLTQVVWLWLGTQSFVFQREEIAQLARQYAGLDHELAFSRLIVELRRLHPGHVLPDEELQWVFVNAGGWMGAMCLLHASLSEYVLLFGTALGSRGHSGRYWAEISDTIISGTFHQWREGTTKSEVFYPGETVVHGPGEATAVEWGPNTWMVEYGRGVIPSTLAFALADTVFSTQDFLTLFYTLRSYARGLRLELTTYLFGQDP
σ2 receptor (σ2R), sequence (Q5BJF2 whole entry, species assumed): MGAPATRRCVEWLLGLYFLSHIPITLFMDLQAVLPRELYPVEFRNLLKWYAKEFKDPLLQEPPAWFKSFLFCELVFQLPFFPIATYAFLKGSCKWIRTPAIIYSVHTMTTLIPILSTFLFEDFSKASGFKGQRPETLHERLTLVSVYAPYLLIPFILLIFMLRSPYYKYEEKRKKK

O=C(CCCN1CCCN(c2ccccn2)CC1)c1ccc(F)cc1 [Compound 3, 1-(4-fluorophenyl)-4-(4-(pyridin-2-yl)-1,4-diazepan-1-yl)butan-1-one]
σ2R pKi ± SEM (σ2 receptor (σ2R)): 7.49 ± 0.09

Fc1ccc(CCCCN2CCCN(c3ccc(Cl)cc3)CC2)cc1 [Compound 5]
σ2R pKi ± SEM (σ2 receptor (σ2R)): 8.07 ± 0.06

Fc1ccc(SCCCN2CCCN(c3ccc(Cl)cn3)CC2)cc1 [Compound 7, 1-(5-chloropyridin-2-yl)-4-(3-((4-fluorophenyl)thio)propyl)-1,4-diazepane]
σ2R pKi ± SEM (σ2 receptor (σ2R)): 8.65 ± 0.05

Fc1ccc(CCCCN2CCN(c3ccc(Cl)cn3)CC2)cc1 [Compound 10, 1-(5-chloropyridin-2-yl)-4-(4-(4-fluorophenyl)butyl)piperazine]
σ2R pKi ± SEM (σ2 receptor (σ2R)): 7.37 ± 0.05

[O-][S+](CCCN1CCN(c2ccc(Cl)cc2)CC1)c1ccc(F)cc1 (centres unmarked) [Compound 12]
fold reduction/loss of binding affinity at σ1 receptor (σ1 receptor (σ1R); relative to compound 8): greater than 45 fold | fold reduction/loss of binding affinity at σ2 receptor (σ2 receptor (σ2R); relative to compound 8): > 71 fold

Clc1ccc(N2CCN(CCCOc3ccccc3)CC2)cc1 [Compound 13]
σ2R pKi ± SEM (σ2 receptor (σ2R)): 7.48 ± 0.09

c1ccc(OCCCN2CCN(c3ccccc3)CC2)cc1 [Compound 15]
fold decrease in binding affinity at σ1 receptor (σ1 receptor (σ1R); [1]): 2–5 fold | fold decrease in binding affinity at σ2 receptor (σ2 receptor (σ2R); [1]): 2–5 fold

OC1(c2ccc(Cl)cc2)CC2CCC(C1)N2CCCCc1ccc(F)cc1 (centres unmarked) [Compound 17]
fold lower affinity for σ1 receptor (σ1 receptor (σ1R); relative to compound 5): 6 fold | fold lower affinity for σ2 receptor (σ2 receptor (σ2R); relative to compound 5): 3 fold
